“And” between values parts separate entries of the source, which are not always exact repeats. Equal values may be shown once. Bridge positions count the residues as written; N and C are the ends. Square brackets hold non-standard residues; d marks the D form. Peptide text beside a SMILES is read from it. * marks the point of attachment. X1 = CC[C@H](C)CCCCC(=O)*; Dab = NCC[C@H](N)C(=O)O
Test: Safety (adverse events, renal function) in BSI patients
Type: in vivo, human
Procedure: The definition of different population groups for safety and efficacy analysis is shown in Supplementary Table S2. Briefly, safety was evaluated based on adverse events (AEs) in patients who received at least one polymyxin B dose. Adverse events were recorded based on patient self-reporting as well as abnormal laboratory test results including serum chemistry and routine blood and urinary testing. Acute kidney injury (AKI) was graded according to the RIFLE criteria ([Bellomo et al., 2004]). The primary endpoint was culture-confirmed bacterial eradication of CRKP from the blood evaluated by blood cultures taken every 3 days following the first dose of polymyxin B administration. Secondary endpoints were clinical outcome (clinical cure or improvement, Supplementary Table S3) evaluated in patients who received at least 3 days of polymyxin B treatment, and 28-day all-cause mortality evaluated in patients who completed 14 days of polymyxin B treatment.

[1] = nine patients, 2.5 mg/kg loading, 1.25 mg/kg/12 h iv

CC[C@H](C)CCCCC(=O)N[C@@H](CCN)C(=O)N[C@H](C(=O)N[C@@H](CCN)C(=O)N[C@H]1CCNC(=O)[C@H]([C@@H](C)O)NC(=O)[C@H](CCN)NC(=O)[C@H](CCN)NC(=O)[C@H](CC(C)C)NC(=O)[C@@H](Cc2ccccc2)NC(=O)[C@H](CCN)NC1=O)[C@@H](C)O [polymyxin B] (X1-[Dab]T[Dab][Dab][Dab][dF]L[Dab][Dab]T; lactam 4-C)
incidence of polymyxin B-induced AKI (RIFLE criteria) (5/9 patients): 55.6%
patients with at least one of neurotoxicity, nephrotoxicity, hyperpigmentation (8/9 patients): 88.9%
abdominal pain (during polymyxin B treatment, all patients): no abdominal pain was reported by any patient
Hyperpigmentation, patients [1]: 1/9
Nephrotoxicity, patients [1]: 5/9
Neurotoxicity, patients [1]: 5/9
Study completion per protocol (Withdrawal reasons) (patient 1, treatment duration 6 days): Withdraw (AKI)
Study completion per protocol (Withdrawal reasons) (patient 2, treatment duration 6 days): Withdraw (AKI)
Study completion per protocol (Withdrawal reasons) (patient 3, treatment duration 14 days): Yes
Study completion per protocol (Withdrawal reasons) (patient 4, treatment duration 1 day (loading dose only)): Withdraw (pruritus and numbness on face and head, ataxia)
Study completion per protocol (Withdrawal reasons) (patient 5, treatment duration 5 days): Withdraw (AKI, pruritus and numbness on face and head, ataxia)
Study completion per protocol (Withdrawal reasons) (patient 6, treatment duration 14 days): Yes
Study completion per protocol (Withdrawal reasons) (patient 7, treatment duration 14 days): Yes
Study completion per protocol (Withdrawal reasons) (patient 8, treatment duration 4 days): Withdraw (AKI, pruritus and numbness on face and head, ataxia)
Study completion per protocol (Withdrawal reasons) (patient 9, treatment duration 14 days): Yes
neurotoxicity among conscious patients (seven conscious patients (two sedated)): Five of seven and 5 of 7
